Laboratory results taken from patent US8053426B2, “Progesterone receptor antagonists” (Bayer Schering Pharma AG, priority 2006, dated 2011).

Experiments:
[1] = biological target: T1, human progesterone receptor B (PR-B) (Homo sapiens, UniProt P06401); assay: Antagonistic activity against promegestone, MTV-LUC reporter in SK-N-MC cells stably transfected with PR-B; assay type: cell-based; conditions: antagonistic activity vs 0.1 nmol/l promegestone, mean ± SD; for IC50: read-out: Potency IC50, PR-B
T1 construct: expressed in transfected cells; host or cells: SK-N-MC human neuroblastoma cells, stably transfected with pRChPR-B-neo and pMMTV-LUC
T1 sequence (P06401 1-933): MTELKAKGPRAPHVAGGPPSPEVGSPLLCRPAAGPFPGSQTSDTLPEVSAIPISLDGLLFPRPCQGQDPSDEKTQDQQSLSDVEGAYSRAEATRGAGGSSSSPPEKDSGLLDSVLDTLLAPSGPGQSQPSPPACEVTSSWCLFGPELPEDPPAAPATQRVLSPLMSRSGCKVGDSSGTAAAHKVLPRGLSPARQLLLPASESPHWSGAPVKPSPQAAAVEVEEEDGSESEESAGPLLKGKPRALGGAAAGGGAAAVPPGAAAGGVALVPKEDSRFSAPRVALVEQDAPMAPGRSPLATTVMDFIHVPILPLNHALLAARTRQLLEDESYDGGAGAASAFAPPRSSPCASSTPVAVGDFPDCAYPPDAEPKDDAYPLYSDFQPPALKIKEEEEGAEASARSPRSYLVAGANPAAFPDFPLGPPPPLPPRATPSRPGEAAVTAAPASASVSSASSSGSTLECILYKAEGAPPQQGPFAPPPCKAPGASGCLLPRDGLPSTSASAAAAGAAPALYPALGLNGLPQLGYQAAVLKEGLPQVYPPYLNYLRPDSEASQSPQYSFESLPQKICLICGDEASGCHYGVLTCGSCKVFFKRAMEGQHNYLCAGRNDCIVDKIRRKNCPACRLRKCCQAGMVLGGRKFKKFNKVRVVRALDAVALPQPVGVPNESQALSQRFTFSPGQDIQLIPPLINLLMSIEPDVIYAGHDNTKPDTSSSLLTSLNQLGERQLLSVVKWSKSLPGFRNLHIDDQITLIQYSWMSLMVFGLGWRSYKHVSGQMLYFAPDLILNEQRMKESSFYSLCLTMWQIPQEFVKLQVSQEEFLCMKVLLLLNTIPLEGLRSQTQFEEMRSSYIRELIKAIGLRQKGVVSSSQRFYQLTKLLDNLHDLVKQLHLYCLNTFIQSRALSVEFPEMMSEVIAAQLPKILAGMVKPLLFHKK
Experimental: (§1) SK-N-MC cells (human neuroblastoma cells), stably transfected with plasmids, which express human progesterone receptor B (pRChPR-B-neo) or human progesterone receptor A (pRChPR-A-neo) and a reporter construct (pMMTV-LUC), were incubated for 24 hours, either in the absence (negative control) or in the presence of increasing amounts of 11β-[4-(1,2-dihydroxy-ethyl)phenyl]-20,20,21,21,21-pentafluoro-17-hydroxy-19-nor-17α-pregna-4,9-dien-3-one or 20,20,21,21,21-pentafluoro-17-hydroxy-11β-[4-(hydroxyacetyl)-phenyl]-19-nor-17α-pregna-4,9-dien-3-one (0.01 nmol/l, 0.1 nmol/l, 1 nmol/l, 10 nmol/l, 100 nmol/l and 1 μmol/l), in order to determine the agonistic efficacy. As a positive control of reporter gene induction, the cells were treated with the synthetic gestagen promegestone (0.01 nmol/l, 0.1 nmol/l, 1 nmol/l, 10 nmol/l, 100 nmol/l and 1 μmol/l). To determine the antagonistic activity, the cells were treated with 0.1 nmol/l of promegestone and additionally with increasing amounts of 11β-[4-(1,2-dihydroxyethyl)phenyl]-20,20,21,21,21-pentafluoro-17-hydroxy-19-nor-17α-pregna-4,9-dien-3-one or 20,20,21,21,21-pentafluoro-17-hydroxy-11β-[4-(hydroxyacetyl)phenyl]-19-nor-17α-pregna-4,9-dien-3-one (0.01 nmol/l, 0.1 nmol/l, 1 nmol/l, 10 nmol/l, 100 nmol/l and 1 μmol/l). […] The activity of the LUC reporter gene (LUC=luciferase) was determined in the cell lyzates and measured as RLU (relative light units).

[2] = Metabolic stability in human liver microsomes (HLM); assay type: in vitro ADME; conditions: 60 minutes, 37° C.
Experimental: Human liver microsomes (HLM) were used to assess the metabolic stability of substances of general formula I.
The incubations were carried out in duplicate with HLM and an NADPH-generating system using a shaker bath at 37° C. The incubation mixture (consisting of cofactor solution, potassium phosphate buffer and microsome preparation) was freshly prepared according to the Table below.
(§2) The incubation volume was 0.25 ml. The incubation mixture was preincubated for three minutes at 37° C. The reaction was started by the addition of the test substance (final concentration 50 μM). The reaction was ended after an incubation time of 60 minutes by the addition of 250 μl of methanol and the mixture was then centrifuged to pellet the protein. The samples were stored at −18° C. for subsequent RP-HPLC analysis.
as §2, with “concentration 10” for “concentration 50”

[3] = biological target: T2, human progesterone receptor A (PR-A) (Homo sapiens, UniProt P06401); assay: Antagonistic activity against promegestone, MTV-LUC reporter in SK-N-MC cells stably transfected with PR-A; assay type: cell-based; conditions: for Efficacy, PR-A / IC50: antagonistic activity vs 0.1 nmol/l promegestone, mean ± SD; for Efficacy, PR-A / IC50 / selectivity in respect of one progesterone receptor isoform: SK-N-MC cells; for IC50: read-out: Potency IC50, PR-A; for selectivity in respect of one progesterone receptor isoform: PR-A versus PR-B; for times less potent than 11β-(4-acetylphenyl)-20,20,21,21,21-pentafluoro-17-hydroxy-19-nor-17α-pregna-4,9-dien-3-one at the progesterone receptors: antagonistic potency, figures match the ratio of the PR-A IC50 values
T2 construct: expressed in transfected cells; host or cells: SK-N-MC human neuroblastoma cells, stably transfected with pRChPR-A-neo and pMMTV-LUC
T2 sequence (P06401 1-769 isoform P06401-2): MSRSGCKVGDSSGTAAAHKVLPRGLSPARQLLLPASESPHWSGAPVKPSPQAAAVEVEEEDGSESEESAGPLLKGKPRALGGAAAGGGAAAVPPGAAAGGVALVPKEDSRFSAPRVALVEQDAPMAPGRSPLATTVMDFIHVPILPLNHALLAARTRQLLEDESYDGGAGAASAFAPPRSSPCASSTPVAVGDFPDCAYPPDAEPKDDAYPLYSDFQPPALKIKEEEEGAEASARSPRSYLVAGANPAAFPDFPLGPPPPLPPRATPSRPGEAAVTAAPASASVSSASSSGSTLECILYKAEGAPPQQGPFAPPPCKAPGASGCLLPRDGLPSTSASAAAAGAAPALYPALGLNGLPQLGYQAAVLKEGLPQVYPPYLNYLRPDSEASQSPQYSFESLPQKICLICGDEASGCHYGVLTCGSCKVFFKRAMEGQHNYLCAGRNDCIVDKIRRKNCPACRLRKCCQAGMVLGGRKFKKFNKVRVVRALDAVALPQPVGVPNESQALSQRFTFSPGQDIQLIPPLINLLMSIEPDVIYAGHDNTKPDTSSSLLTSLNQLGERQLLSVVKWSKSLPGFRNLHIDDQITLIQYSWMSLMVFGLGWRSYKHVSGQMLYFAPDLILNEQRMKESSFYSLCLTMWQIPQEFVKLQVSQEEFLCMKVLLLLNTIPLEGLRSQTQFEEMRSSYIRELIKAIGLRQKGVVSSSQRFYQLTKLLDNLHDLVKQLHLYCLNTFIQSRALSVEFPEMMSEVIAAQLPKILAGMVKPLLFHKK
Experimental: as §1

[4] = biological target: T2, human progesterone receptor A (PR-A); assay: Agonistic activity, MTV-LUC reporter in SK-N-MC cells stably transfected with PR-A; assay type: cell-based; conditions: 24 hours; for Efficacy, PR-A: relative LUC activity
Experimental: as §1

[5] = biological target: T1, human progesterone receptor B (PR-B); assay: Agonistic activity, MTV-LUC reporter in SK-N-MC cells stably transfected with PR-B; assay type: cell-based; conditions: 24 hours; for Efficacy, PR-B: relative LUC activity
Experimental: as §1

[6] = tested on: pregnant rats; assay: Abortion test on female rats; assay type: in vivo, rat; conditions: 1.5 mg/kg subcutaneously daily d5-d7 p.c., autopsy d9 p.c.
Experimental: The antigestagenic action of the progesterone receptor antagonists according to the invention was tested on pregnant rats (6 rats per group) on days 5 to 7 post coitum under conventional housing and feeding conditions.
After successful copulation, the pregnant animals (presence of sperm in the vaginal smear on day 1 of pregnancy=d1 p.c.) were randomized and divided up into the treatment group and the control group. Each animal was then injected subcutaneously with 1.5 mg/kg of the test substance (11β-[4-(1,2-Dihydroxyethyl)phenyl]-20,20,21,21,21-pentafluoro-17-hydroxy-19-nor-17α-pregna-4,9-dien-3-one according to Example 1 or 20,20,21,21,21-pentafluoro-17-hydroxy-11β-[4-(hydroxyacetyl)phenyl]-19-nor-17α-pregna-4,9-dien-3-one according to Example 3) or 1.0 ml/kg of vehicle (benzyl benzoate/castor oil: 1+4[v/v]) daily from day 5 to day 7 (d5-d7 p.c.).
The autopsy was performed on day 9 (d9 p.c.). As the parameter of antigestagenic action, the uterus was examined for the presence of implantation sites. The complete absence of implantation sites as well as the presence of pathological, hemorrhagic or otherwise abnormal implantation sites on day 9 (d9 p.c.) were evaluated as abortions.

[7] = tested on: 35-day-old rabbits; assay: Determination of the McPhail index on the rabbit; assay type: in vivo; conditions: 3 mg/kg/d test substance + 0.2 mg/kg/d progesterone s.c. day 7 to 10, autopsy day 11, 1=no, 4=maximum glandular differentiation
Experimental: The antigestagenic efficacy of the progesterone receptor antagonists according to the invention was tested on 35-day-old rabbits under conventional housing and feeding conditions.
As a preparatory measure, the animals were treated subcutaneously with 5.0 μg/kg/d with 17β-estradiol from day 1 to day 4. To determine the antigestagenic efficacy, the animals were treated subcutaneously from day 7 to day 10 with 0.2 mg/kg/d of progesterone and 3 mg/kg/d of the test substance (11β-[4-(1,2-Dihydroxyethyl)phenyl]-20,20,21,21,21-pentafluoro-17-hydroxy-19-nor-17α-pregna-4,9-dien-3-one according to Example 1 or 20,20,21,21,21-pentafluoro-17-hydroxy-11β-[4-(hydroxyacetyl)phenyl]-19-nor-17α-pregna-4,9-dien-3-one according to Example 3) simultaneously. The vehicle used was a mixture of benzyl benzoate and castor oil in a ratio of 1+4 (v/v).
The autopsy was performed on day 11 after the start of treatment. The uteri were removed and fixed for histology. The McPhail index (degree of glandular differentiation) was determined by means of light microscopy (evaluation: 1=no glandular differentiation; 4=maximum glandular differentiation) as the parameter of antigestagenic efficacy (inhibition of the glandular differentiation caused by progesterone).

[8] = HLM 1.0 mg/ml, test substance 50 μM

Row | recovered in the supernatant (RP-HPLC) ([2]; HLM 0.4 mg/ml, test substance 10 μM) [%] | EC50 ([4]; mean ± SD, read-out: Potency EC50, PR-A) [nM] | EC50 ([5]; mean ± SD, read-out: Potency EC50, PR-B) [nM] | Structure (SMILES) | Efficacy, PR-B [1] [%] | IC50 [1] [nM] | Efficacy, PR-A [3] [%] | IC50 [3] [nM] | Efficacy, PR-A [4] | Efficacy, PR-B [5] | recovered in the supernatant (RP-HPLC) [2, 8] | Abortion rate [6] [%] | McPhail index [median] [7] | selectivity in respect of one progesterone receptor isoform [3] | times less potent than 11β-(4-acetylphenyl)-20,20,21,21,21-pentafluoro-17-hydroxy-19-nor-17α-pregna-4,9-dien-3-one at the progesterone receptors [3]
1 | 60 | – | – | CC(=O)c1ccc([C@H]2C[C@@]3(C)[C@@H](CC[C@@]3(O)C(F)(F)C(F)(F)F)[C@@H]3CCC4=CC(=O)CCC4=C32)cc1 [11β-(4-acetylphenyl)-20,20,21,21,21-pentafluoro-17-hydroxy-19-nor-17α-pregna-4,9-dien-3-one, reference compound] | 100 ± 0 | 0.02 ± 0.01 | 100 ± 0 | 0.014 ± 0.01 | – | – | – | – | – | – | –
2 | – | 0.23 ± 0.03 | 0.03 | CCC(=O)[C@@]1(C)CC[C@H]2[C@@H]3CCC4=CC(=O)CCC4=C3CC[C@@]21C [Promegestone, promegestone, reference compound] | – | – | – | – | 100% | 100% | – | – | – | – | –
3 | – | – | – | C[C@]12C[C@H](c3ccc(C(O)CO)cc3)C3=C4CCC(=O)C=C4CC[C@H]3[C@@H]1CC[C@@]2(O)C(F)(F)C(F)(F)F (mixture of isomers) [Example 1, 11β-[4-(1,2-dihydroxyethyl)phenyl]-20,20,21,21,21-pentafluoro-17-hydroxy-19-nor-17α-pregna-4,9-dien-3-one] | 100 ± 0 | 3.47 ± 0.46 | 100 ± 0 | 1.87 ± 0.23 | no effect | no effect | about 70% | 100 | 1.0 | Neither compound exhibits any selectivity | about 130 times
4 | – | – | – | C[C@]12C[C@H](c3ccc(C(=O)CO)cc3)C3=C4CCC(=O)C=C4CC[C@H]3[C@@H]1CC[C@@]2(O)C(F)(F)C(F)(F)F [Example 3, 20,20,21,21,21-pentafluoro-17-hydroxy-11β-[4-(hydroxyacetyl)phenyl]-19-nor-17α-pregna-4,9-dien-3-one] | 100 ± 0 | 0.28 ± 0.08 | 100 ± 0 | 0.18 ± 0.06 | no effect | no effect | about 80% | 100 | 1.0 | Neither compound exhibits any selectivity | about 13 times
